Laboratory results reported in ChEMBL document CHEMBL1130734, “Design and synthesis of a biotinylated dopamine transporter ligand for the purification and labeling of dopaminergic neurons” (Bioorg Med Chem Lett, 1998).

Target: Sodium-dependent noradrenaline transporter (Homo sapiens, UniProt P23975)
Experiment: Compound was tested for its ability to inhibit the uptake of Norepinephrine in Norepinephrine transporter system
Format: functional

Sodium-dependent noradrenaline transporter, sequence (P23975 whole entry): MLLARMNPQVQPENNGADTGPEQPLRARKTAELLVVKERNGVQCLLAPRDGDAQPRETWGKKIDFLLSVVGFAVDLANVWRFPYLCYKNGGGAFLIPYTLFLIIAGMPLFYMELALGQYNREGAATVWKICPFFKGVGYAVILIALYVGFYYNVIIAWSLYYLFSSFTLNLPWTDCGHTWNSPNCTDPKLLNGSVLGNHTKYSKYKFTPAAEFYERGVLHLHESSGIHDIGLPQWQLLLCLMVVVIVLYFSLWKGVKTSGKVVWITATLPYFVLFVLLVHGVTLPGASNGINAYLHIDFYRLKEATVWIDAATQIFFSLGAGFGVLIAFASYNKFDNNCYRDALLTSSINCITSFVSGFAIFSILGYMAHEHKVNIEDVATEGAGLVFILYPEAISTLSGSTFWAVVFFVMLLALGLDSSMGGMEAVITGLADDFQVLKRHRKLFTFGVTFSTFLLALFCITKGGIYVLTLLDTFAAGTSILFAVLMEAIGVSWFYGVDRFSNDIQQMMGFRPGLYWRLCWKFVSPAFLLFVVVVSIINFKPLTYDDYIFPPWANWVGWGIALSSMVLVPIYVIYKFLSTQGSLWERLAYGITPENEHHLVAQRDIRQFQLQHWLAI

Compound: c1ccc(CCCN2CCN(CCOC(c3ccccc3)c3ccccc3)CC2)cc1
- IC50: 1.26 µM
